Results: US8497276B2, “Substituted indolo-piperidine compounds” (ArQule, Inc., priority 2009, dated 2013)

Tests used:
PACA-2 = assay: MTS Assay (cell growth inhibition), PACA-2; assay type: cell-based; conditions: PACA-2 cells, 72 hours with test compound; concentration not given
Experimental: (§1) Cells were maintained at 37° C., 5% CO2 in DMEM media supplemented with 1% fetal bovine serum, penicillin/streptomycin and fungizone (Invitrogen). Cells were seeded into 96-well tissue culture plates at 3000 per well and cultured at 37° C. for 18 hours. Test compounds were dissolved and diluted to 300× in DMSO then diluted 1:40 in DMEM. Cells were incubated with test compounds for 72 hours followed by incubation with tetrazolium compound (3-(4,5-dimethylthiazol-2-yl)-5-(3-carboxymethoxyphenyl)-2-(4-sulfophenyl)-2H-tetrazolium, inner salt; MTS) and the electron coupling reagent, phenazine methosulfate (PMS) for 4 hours. […] The ability of compounds to inhibit cell growth in this assay is correlated with the reduction of dehydrogenase enzyme activity found in metabolically active cells. The measurement of the absorbance of the formazan was assessed using an ENVISION™ (Perkin Elmer) microplate reader at 492 nm. The calculated IC50 value is the concentration of the test compound that causes a 50% decrease in the absorbance.

NCI-H1299 = assay: MTS Assay (cell growth inhibition), NCI-H1299; assay type: cell-based; conditions: NCI-H1299 cells, 72 hours with test compound; concentration not given
Experimental: as §1

MDA-MB 231 = assay: MTS Assay (cell growth inhibition), MDA-MB 231; assay type: cell-based; conditions: MDA-MB 231 cells, 72 hours with test compound; concentration not given
Experimental: as §1

Tec kinase = target: T1, Tec kinase (Homo sapiens, UniProt P42680); assay: Tec Kinase Activity Assay; assay type: biochemical; conditions: 75 μM ATP, Pyk-2 substrate; compound concentration not given
T1 sequence (P42680 1-631): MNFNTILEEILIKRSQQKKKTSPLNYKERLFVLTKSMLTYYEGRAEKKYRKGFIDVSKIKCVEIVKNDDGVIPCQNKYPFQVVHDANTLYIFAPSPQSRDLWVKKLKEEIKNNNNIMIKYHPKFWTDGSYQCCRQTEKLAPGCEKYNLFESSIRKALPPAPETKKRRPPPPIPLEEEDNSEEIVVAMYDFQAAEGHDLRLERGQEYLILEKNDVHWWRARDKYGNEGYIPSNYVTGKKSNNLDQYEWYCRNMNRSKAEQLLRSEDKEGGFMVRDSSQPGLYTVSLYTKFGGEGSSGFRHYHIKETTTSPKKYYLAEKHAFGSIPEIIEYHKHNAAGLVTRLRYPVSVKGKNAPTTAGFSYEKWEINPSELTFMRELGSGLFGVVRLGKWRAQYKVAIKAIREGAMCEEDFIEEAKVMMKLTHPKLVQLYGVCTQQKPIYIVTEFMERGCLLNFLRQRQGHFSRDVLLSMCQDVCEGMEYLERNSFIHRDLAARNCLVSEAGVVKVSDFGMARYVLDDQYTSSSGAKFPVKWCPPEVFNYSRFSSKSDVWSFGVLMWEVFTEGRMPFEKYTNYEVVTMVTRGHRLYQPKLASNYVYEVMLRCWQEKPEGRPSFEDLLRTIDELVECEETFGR
Experimental: The disclosed compounds were assayed for their ability to inhibit the activity of Tec kinase. Nunc Maxisorb plates were coated with streptavidin by overnight incubation with 100 μl per well of 1 μg/ml Streptavidin in DPBS. Prior to the start of the experiment, the plates were washed with TBST (3×200 μl) and blocked for at least 1 hour by adding 150 μl of 5% BSA/TBST. The plates were then washed with TBST (3×200 μl/well) and left dry immediately before the capture step.
The disclosed test compounds and controls (Staurosporine and Sutent) were prepared using the following assay buffer (50 mM Tris-HCl, 0.02 mg/ml BSA, 10 mM MgCl2, 0.1 mM Na3VO4, 1 mM EGTA, 75 μM ATP, 0.01% NP-40, 2 mM DTT in 10% glycerol/water) at 3× desired final concentration. 20 μl of the test compounds (or control) and 20 μl TEC (0.25 ng/μl) were rapidly added to a reaction plate. The plate was incubated for 30 minutes. 20 μl of Pyk-2 (0.5 ng/μl) was then added to the reaction plate. The plate was incubated at room temperature for two hours.
50 μl was transferred from the reaction plate to the streptavidin coated plate. The capture plate was incubated at room temperature for 30 minutes then washed with TBST 6 times. 100 μl/well of Cell Signaling anti-phospho tyrosine was added to the capture plate at a dilution of 1:3000 in 2% BSA/TBST. The plate was incubated for one hour at room temperature then washed with TBST 6 times. 100 μl/well of alkaline phosphatase tagged goat anti-mouse antibody was added to the capture plate at a dilution of 1:4000 in 2% BSA/TBST. The plate was incubated for one hour at room temperature then washed with TBST 6 times.
The fluorescent readout was initiated by the addition of 100 μl/well of Attophos reagent (6 mg/10 ml) and the reading was done on the Perkin Elmer Envision system.

Kato III = assay: MTS Assay (cell growth inhibition), Kato III; assay type: cell-based; conditions: Kato III cells, 72 hours with test compound; concentration not given
Experimental: as §1

DLD-1 = assay: MTS Assay (cell growth inhibition), DLD-1; assay type: cell-based; conditions: DLD-1 cells, 72 hours with test compound; concentration not given
Experimental: as §1

PC-3 = assay: MTS Assay (cell growth inhibition), PC-3; assay type: cell-based; conditions: PC-3 cells, 72 hours with test compound; concentration not given
Experimental: as §1

Row | Biochemical IC50 (% inhibition) Tec (Tec kinase) | SMILES | MTS cell kill data (% inhibition) PACA-2 (PACA-2) | MTS cell kill data (% inhibition) NCI-H1299 (NCI-H1299) | MTS cell kill data (% inhibition) MDA-MB 231 (MDA-MB 231) | MTS cell kill data (% inhibition) Kato III (Kato III) | MTS cell kill data (% inhibition) DLD-1 (DLD-1) | MTS cell kill data (% inhibition) PC-3 (PC-3)
1 | C (C = <50% inhibition) | c1ccc(CC2c3[nH]c4ccccc4c3CCN2c2ncnc3[nH]ccc23)cc1 (stereo not drawn) [Compound 14, 1-benzyl-2-(7H-pyrrolo[2,3-d]pyrimidin-4-yl)-2,3,4,9-tetrahydro-1H-beta-carboline] | B (B = 50-79% inhibition) | A (A = 80-100% inhibition) | A (A = 80-100% inhibition) | A (A = 80-100% inhibition) | B (B = 50-79% inhibition) | A (A = 80-100% inhibition)
2 | C (C = <50% inhibition) | c1ccc(CC2c3[nH]c4ccccc4c3CCN2c2ncnc3[nH]cnc23)cc1 (stereo not drawn) [Compound 15, 1-benzyl-2-(9H-purin-6-yl)-2,3,4,9-tetrahydro-1H-beta-carboline] | C (C = <50% inhibition) | A (A = 80-100% inhibition) | A (A = 80-100% inhibition) | B (B = 50-79% inhibition) | B (B = 50-79% inhibition) | A (A = 80-100% inhibition)
3 | C (C = <50% inhibition) | Nc1nc(N2CCc3c([nH]c4ccccc34)C2Cc2ccccc2)c2nc[nH]c2n1 (stereo not drawn) [Compound 16, 6-(1-benzyl-1,3,4,9-tetrahydro-2H-beta-carbolin-2-yl)-9H-purin-2-amine] | C (C = <50% inhibition) | C (C = <50% inhibition) | C (C = <50% inhibition) | C (C = <50% inhibition) | C (C = <50% inhibition) | C (C = <50% inhibition)
4 | C (C = <50% inhibition) | c1ccc(CC2c3[nH]c4ccccc4c3CCN2c2ncnc3[nH]ncc23)cc1 (stereo not drawn) [Compound 17, 1-benzyl-2-(1H-pyrazolo[3,4-d]pyrimidin-4-yl)-2,3,4,9-tetrahydro-1H-beta-carboline] | B (B = 50-79% inhibition) | B (B = 50-79% inhibition) | C (C = <50% inhibition) | B (B = 50-79% inhibition) | B (B = 50-79% inhibition) | C (C = <50% inhibition)

Second part, the compound before the results:

Row | SMILES | Biochemical IC50 (% inhibition) Tec (Tec kinase) | MTS cell kill data (% inhibition) PACA-2 (PACA-2) | MTS cell kill data (% inhibition) NCI-H1299 (NCI-H1299) | MTS cell kill data (% inhibition) MDA-MB 231 (MDA-MB 231) | MTS cell kill data (% inhibition) Kato III (Kato III) | MTS cell kill data (% inhibition) DLD-1 (DLD-1) | MTS cell kill data (% inhibition) PC-3 (PC-3)
5 | Cc1cccc(C2c3[nH]c4ccccc4c3CCN2c2ncnc3[nH]cnc23)c1 (stereo not drawn) [Compound 11, 1-(3-methylphenyl)-2-(9H-purin-6-yl)-2,3,4,9-tetrahydro-1H-beta-carboline] | C (C = <50% inhibition) | B (B = 50-79% inhibition) | A (A = 80-100% inhibition) | B (B = 50-79% inhibition) | A (A = 80-100% inhibition) | A (A = 80-100% inhibition) | C (C = <50% inhibition)
6 | Cc1cccc(C2c3[nH]c4ccccc4c3CCN2c2ncnc3[nH]ncc23)c1 (stereo not drawn) [Compound 12, 1-(3-methylphenyl)-2-(1H-pyrazolo[3,4-d]pyrimidin-4-yl)-2,3,4,9-tetrahydro-1H-beta-carboline] | B (B = 50-79% inhibition) | C (C = <50% inhibition) | B (B = 50-79% inhibition) | B (B = 50-79% inhibition) | A (A = 80-100% inhibition) | B (B = 50-79% inhibition) | C (C = <50% inhibition)
7 | Clc1ccccc1C1c2[nH]c3ccccc3c2CCN1c1ncnc2[nH]cnc12 (stereo not drawn) [Compound 13, 1-(2-chlorophenyl)-2-(9H-purin-6-yl)-2,3,4,9-tetrahydro-1H-beta-carboline] | B (B = 50-79% inhibition) | C (C = <50% inhibition) | B (B = 50-79% inhibition) | C (C = <50% inhibition) | C (C = <50% inhibition) | C (C = <50% inhibition) | C (C = <50% inhibition)
8 | CC(C)c1ccc(C2c3[nH]c4ccccc4c3CCN2c2ncnc3[nH]ccc23)cc1 (stereo not drawn) [Compound 18, 1-(4-isopropylphenyl)-2-(7H-pyrrolo[2,3-d]pyrimidin-4-yl)-2,3,4,9-tetrahydro-1H-beta-carboline] | C (C = <50% inhibition) | A (A = 80-100% inhibition) | A (A = 80-100% inhibition) | A (A = 80-100% inhibition) | A (A = 80-100% inhibition) | A (A = 80-100% inhibition) | C (C = <50% inhibition)
9 | CC(C)c1ccc(C2c3[nH]c4ccccc4c3CCN2c2ncnc3[nH]cnc23)cc1 (stereo not drawn) [Compound 19, 1-(4-isopropylphenyl)-2-(9H-purin-6-yl)-2,3,4,9-tetrahydro-1H-beta-carboline] | C (C = <50% inhibition) | C (C = <50% inhibition) | C (C = <50% inhibition) | C (C = <50% inhibition) | C (C = <50% inhibition) | C (C = <50% inhibition) | C (C = <50% inhibition)
10 | CC(C)c1ccc(C2c3[nH]c4ccccc4c3CCN2c2nc(N)nc3[nH]cnc23)cc1 (stereo not drawn) [Compound 20, 6-[1-(4-isopropylphenyl)-1,3,4,9-tetrahydro-2H-beta-carbolin-2-yl]-9H-purin-2-amine] | C (C = <50% inhibition) | B (B = 50-79% inhibition) | A (A = 80-100% inhibition) | B (B = 50-79% inhibition) | A (A = 80-100% inhibition) | A (A = 80-100% inhibition) | C (C = <50% inhibition)
